≈ marks a conversion by molar mass, not a printed value. Calls of active or inactive are those of the source. The calls are words filed in the database; no cut-off is given here. Square brackets hold non-standard residues; d marks the D form. Peptide text beside a SMILES is read from it. * marks the point of attachment. Octanoyl(2R-Me,7,8-dehydro) = C=CCCCC[C@@H](C)C(=O)*; Oct7ynoyl(2R-Me) = C#CCCCC[C@@H](C)C(=O)*; NMeY = CN[C@@H](Cc1ccc(O)cc1)C(=O)O; Oct(7)ynoyl = C#CCCCCCC(=O)*; NMeV = CN[C@H](C(=O)O)C(C)C; X2 = c1csc([C@@H]2CCCN2*)n1; NMeA = CN[C@@H](C)C(=O)O; X1 = CN(Cc1nccs1)*

Assay [1] relates to LoVo. Put plainly: Cytotoxicity against human LoVo cells. The class given is functional, cell-based.
For assay [2], the system named is KB. The assay is described as follows: Cytotoxicity against human KB cells. The assay is classed as functional, cell-based.
Assay [3] in a line: Inhibition of elastase.
Assay [4] can be described thus: Induction of elastase activity.
Assay [5] can be described thus: Inhibition of chymotrypsin.
Assay [6] addresses T1, Papain (Carica papaya) (UniProt P00784).
T1 sequence (whole entry): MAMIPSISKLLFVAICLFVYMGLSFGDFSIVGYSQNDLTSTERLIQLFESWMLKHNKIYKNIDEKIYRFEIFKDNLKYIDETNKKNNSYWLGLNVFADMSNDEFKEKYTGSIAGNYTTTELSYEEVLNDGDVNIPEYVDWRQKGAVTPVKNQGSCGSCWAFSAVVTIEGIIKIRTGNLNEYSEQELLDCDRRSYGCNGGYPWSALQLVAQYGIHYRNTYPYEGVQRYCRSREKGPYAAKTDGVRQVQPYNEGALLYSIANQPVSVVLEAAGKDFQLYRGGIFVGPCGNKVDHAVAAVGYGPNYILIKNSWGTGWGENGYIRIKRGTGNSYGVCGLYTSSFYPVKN
The assay is described as follows: Inhibition of Papaya papain.

The nature of assay [7]: Inhibition of trypsin.
Assay [8] concerns the target Prothrombin (Homo sapiens) (UniProt P00734). Put plainly: Inhibition of thrombin.

As to `C#CCCCCCC(=O)N(C)[C@@H](C)C(=O)N(C)[C@H](C(=O)N1CCC[C@H]1C(=O)N(C)[C@H](C(=O)N(C)[C@H](C(=O)N(C)[C@@H](Cc1ccc(OC)cc1)C(=O)N1CCC[C@H]1c1nccs1)C(C)C)C(C)C)C(C)C` ({Oct(7)ynoyl}-[NMeA][NMeV]P[NMeV][NMeV][NMeY](Me)-X2), the outcome in assay [1] and in assay [2] was inactive.
Regarding `C#CCCCC[C@@H](C)C(=O)N(C)[C@@H](C)C(=O)N(C)[C@H](C(=O)N1CCC[C@H]1C(=O)N(C)[C@H](C(=O)N(C)[C@H](C(=O)N(C)[C@@H](Cc1ccc(OC)cc1)C(=O)N(C)Cc1nccs1)C(C)C)C(C)C)C(C)C` ({Oct7ynoyl(2R-Me)}-[NMeA][NMeV]P[NMeV][NMeV][NMeY](Me)-X1), the outcome in assay [3], in assay [1] and in assay [2] was inactive. Besides, the result in assay [4], in assay [5], in assay [6], in assay [7] and in assay [8] was Active.
For `C=CCCCC[C@@H](C)C(=O)N(C)[C@@H](C)C(=O)N(C)[C@H](C(=O)N1CCC[C@H]1C(=O)N(C)[C@H](C(=O)N(C)[C@H](C(=O)N(C)[C@@H](Cc1ccc(OC)cc1)C(=O)N1CCC[C@H]1c1nccs1)C(C)C)C(C)C)C(C)C` ({Octanoyl(2R-Me,7,8-dehydro)}-[NMeA][NMeV]P[NMeV][NMeV][NMeY](Me)-X2), the outcome in assay [1] and in assay [2] was inactive.
Turning to `C#CCCCC[C@@H](C)C(=O)N(C)[C@@H](C)C(=O)N(C)[C@H](C(=O)N1CCC[C@H]1C(=O)N(C)[C@H](C(=O)N(C)[C@H](C(=O)N(C)[C@@H](Cc1ccc(OC)cc1)C(=O)N1CCC[C@H]1c1nccs1)C(C)C)C(C)C)C(C)C` ({Oct7ynoyl(2R-Me)}-[NMeA][NMeV]P[NMeV][NMeV][NMeY](Me)-X2), the result in assay [1] and in assay [2] was inactive.
As to `C=CCCCC[C@@H](C)C(=O)N(C)[C@@H](C)C(=O)N(C)[C@H](C(=O)N1CCC[C@H]1C(=O)N(C)[C@H](C(=O)N(C)[C@H](C(=O)N(C)[C@@H](Cc1ccc(OC)cc1)C(=O)N(C)Cc1nccs1)C(C)C)C(C)C)C(C)C` ({Octanoyl(2R-Me,7,8-dehydro)}-[NMeA][NMeV]P[NMeV][NMeV][NMeY](Me)-X1), the outcome in assay [1] and in assay [2] was inactive.
As for `C#CCCCC[C@@H](C)C(=O)N(C)[C@@H](C)C(=O)N(C)[C@H](C(=O)N(C)[C@H](C(=O)N(C)[C@H](C(=O)N(C)[C@H](C(=O)N1CCC[C@H]1c1nccs1)C(C)C)C(C)C)C(C)C)C(C)C` [APRAMIDE G] ({Oct7ynoyl(2R-Me)}-[NMeA][NMeV][NMeV][NMeV][NMeV]-X2), the IC50 came to 0.011 µg/mL (≈ 0.0133 µM) in assay [1] and 0.033 µg/mL (≈ 0.0398 µM) in assay [2].
Take `C#CCCCCCC(=O)N(C)[C@@H](C)C(=O)N(C)[C@H](C(=O)N1CCC[C@H]1C(=O)N(C)[C@H](C(=O)N(C)[C@H](C(=O)N(C)[C@@H](Cc1ccc(OC)cc1)C(=O)N(C)Cc1nccs1)C(C)C)C(C)C)C(C)C` ({Oct(7)ynoyl}-[NMeA][NMeV]P[NMeV][NMeV][NMeY](Me)-X1): the outcome in assay [1] and in assay [2] was inactive.

Broadly, the IC50 is the concentration that gives 50% inhibition. A high value points to weaker potency in that assay.

For the origin of these results see ChEMBL document CHEMBL1155565, “Apramides A-G, novel lipopeptides from the marine cyanobacterium Lyngbya majuscula” (J Nat Prod, 2000).
